What was measured:
Abl^Y272H/A363V = experiment: Kinase assay, phosphorylation of CrkII, Abl Y272H/A363V; format: biochemical, human
[1] = tested on: Abl^FK (SH3-SH2 module and kinase domain); experiment: NMR; set-up: species or system human; settings: GNF5 displaces imatinib from the myristoyl pocket

Structure (SMILES): Cc1ccc(NC(=O)c2ccc(CN3CCN(C)CC3)cc2)cc1Nc1nccc(-c2cccnc2)n1 [imatinib]
- kinase activity of Abl^Y272H/A363V in the presence of imatinib (Abl^Y272H/A363V; 2 mM ATP, compared with Abl^Y272H/L359A): significantly higher than the activity of Abl^Y272H/L359A
- effect on catalytic activity of Abl^Y272H/A363V at high ATP (Abl^Y272H/A363V; 20 mM ATP): significantly increases the catalytic activity

Structure (SMILES): O=C(NCCO)c1cccc(-c2cc(Nc3ccc(OC(F)(F)F)cc3)ncn2)c1 [GNF5]
- effect on equilibrium, GNF5 added to imatinib-bound Abl^FK [1]: shifts the population almost fully towards the inhibited state
- kinase activity of Abl^Y272H/A363V in the presence of both imatinib and GNF5 (Abl^Y272H/A363V; 2 mM ATP): strongly suppressed

Source: PMC8752476 (Journal of molecular biology, 2021)
